# The source made the active and inactive calls. No cut-off for these calls is given here.
# How the values were obtained:
# U-937 [1] = assay: Induction of cell attachment in human U-937 cells at 1000 nM incubated for 72 hrs relative to control; assay type: functional
# [2] = molecular target: Protein kinase C delta type (Homo sapiens, UniProt Q05655); assay: Binding affinity to PKCdelta (unknown origin) assessed as inhibition constant
# U-937 [3] = assay: Induction of cell attachment in human U-937 cells at 1 to 100 nM incubated for 72 hrs relative to control; assay type: functional; settings: dose 1-100 nM
# U-937 [4] = assay: Induction of cell attachment in human U-937 cells at 100 nM incubated for 72 hrs; assay type: functional, cell-based
# U-937 [5] = assay: Induction of cell attachment in human U-937 cells at 1 to 100 nM incubated for 72 hrs; assay type: functional, cell-based; settings: dose 1-100 nM
# LNCaP [6] = assay: Growth inhibition of human LNCaP cells at 5 to 1500 nM incubated for 72 hrs; assay type: functional, cell-based; settings: dose 5-1500 nM
# U-937 [7] = assay: Induction of cell attachment in human U-937 cells at more than 10 nM incubated for 72 hrs relative to control; assay type: functional
# LNCaP [8] = assay: Growth inhibition of human LNCaP cells at 1.5 uM incubated for 72 hrs; assay type: functional, cell-based
# U-937 [9] = assay: Growth inhibition of human U-937 cells assessed as reduction in total cell number at 1 to 10 nM incubated for 72 hrs; assay type: functional, cell-based; settings: dose 1-10 nM
# U-937 [10] = assay: Growth inhibition of human U-937 cells assessed as reduction in total cell number at 1000 nM incubated for 72 hrs; assay type: functional, cell-based
# U-937 [11] = assay: Growth inhibition of human U-937 cells assessed as reduction in total cell number at 100 nM incubated for 72 hrs; assay type: functional; settings: read-out: GI
# U-937 [12] = assay: Induction of cell attachment in human U-937 cells at 100 nM incubated for 72 hrs relative to control; assay type: functional
# LNCaP [13] = assay: Growth inhibition of human LNCaP cells at < 10 nM incubated for 72 hrs; assay type: functional, cell-based
# U-937 [14] = assay: Growth inhibition of human U-937 cells assessed as reduction in total cell number at 1 nM incubated for 72 hrs; assay type: functional; settings: read-out: GI
# U-937 [15] = assay: Induction of cell attachment in human U-937 cells at 1 nM incubated for 72 hrs relative to control; assay type: functional
# Chain of Protein kinase C delta type (Q05655 whole entry): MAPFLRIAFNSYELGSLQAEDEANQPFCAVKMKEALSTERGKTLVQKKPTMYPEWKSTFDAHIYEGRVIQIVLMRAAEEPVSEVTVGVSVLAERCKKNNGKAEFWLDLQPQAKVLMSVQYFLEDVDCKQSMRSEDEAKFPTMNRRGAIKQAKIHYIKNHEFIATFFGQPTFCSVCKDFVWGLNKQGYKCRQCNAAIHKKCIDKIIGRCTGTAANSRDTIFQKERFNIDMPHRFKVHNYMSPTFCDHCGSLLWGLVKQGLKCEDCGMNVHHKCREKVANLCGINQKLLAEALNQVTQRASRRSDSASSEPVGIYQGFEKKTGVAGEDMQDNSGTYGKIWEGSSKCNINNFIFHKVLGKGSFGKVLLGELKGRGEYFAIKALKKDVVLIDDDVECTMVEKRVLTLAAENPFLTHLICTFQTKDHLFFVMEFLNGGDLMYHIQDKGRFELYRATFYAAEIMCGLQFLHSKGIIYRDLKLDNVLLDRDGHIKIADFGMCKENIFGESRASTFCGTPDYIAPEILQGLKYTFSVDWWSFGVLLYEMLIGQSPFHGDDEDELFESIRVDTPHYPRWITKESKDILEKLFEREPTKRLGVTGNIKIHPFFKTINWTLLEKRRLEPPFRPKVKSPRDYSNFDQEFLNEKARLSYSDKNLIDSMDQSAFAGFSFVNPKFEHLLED
smiles,measurement,setting,value
CC(C)[C@H]1C(=O)N[C@H](CO)Cc2cn(C(C)C)c3cccc(c23)N1C,Activity,U-937 [1],6.5%
same,Ki,[2],32 nM
same,Activity,U-937 [3],<2%
same,Activity,U-937 [4],Active
same,Activity,U-937 [5],inactive
same,growth inhibition (GI),LNCaP [6],Active
CC(=O)n1cc2c3c(cccc31)N(C)[C@@H](C(C)C)C(=O)N[C@H](CO)C2,Ki,[2],94 nM
same,Activity,U-937 [3],<2%
same,Activity,U-937 [4],Active
same,Activity,U-937 [5],inactive
same,growth inhibition (GI),LNCaP [6],Active
C=C[C@@](C)(CCC=C(C)C)c1ccc2c3c(c[nH]c13)C[C@@H](CO)NC(=O)[C@H](C(C)C)N2C,Activity,U-937 [7],>60%
CCC/C=C/C=C/C(=O)O[C@H]1/C(=C/C(=O)OC)C[C@H]2C[C@H]([C@@H](C)O)OC(=O)C[C@H](O)C[C@@H]3C[C@H](OC(C)=O)C(C)(C)[C@](O)(C[C@@H]4C/C(=C/C(=O)OC)C[C@H](/C=C/C(C)(C)[C@]1(O)O2)O4)O3 [BRYOSTATIN 1],Activity,U-937 [1],1.8%
same,growth inhibition (GI),LNCaP [8],inactive
same,growth inhibition (GI),U-937 [9],inactive
same,growth inhibition (GI),U-937 [10],Active
CC(C)[C@H]1C(=O)N[C@H](CO)Cc2c[nH]c3cccc(c23)N1C [INDOLACTUM],Activity,U-937 [1],70.3%
same,inhibition of growth at 0.1 µM,U-937 [11],25.7%
same,Activity,U-937 [12],44.2%
C=CC(C)(C)c1ccc2c3c(c[nH]c13)C[C@@H](CO)NC(=O)[C@H](C(C)C)N2C [PENDOLMYCIN],Activity,U-937 [7],>60%
CCCCCCCCCCCCCC(=O)O[C@H]1[C@H](C)[C@]2(O)[C@H](C=C(CO)C[C@@]3(O)C(=O)C(C)=C[C@H]23)[C@H]2C(C)(C)[C@@]12OC(C)=O,growth inhibition (GI),LNCaP [13],Active
same,inhibition of growth at 0.001 µM,U-937 [14],21.5%
same,Activity,U-937 [15],85.4%
